In ChEMBL document CHEMBL3885861, “Open TG-GATES”:

Species: Rattus norvegicus
Experiment: Open TG-GATES - Regimen: Daily Repeat
Type: toxicity, organism-based, Sprague-Dawley
Set-up: regimen Daily Repeat, gender Male, age 6 weeks
Settings: in vivo, po, 300 mg/kg, route gavage, dose level Middle; for APTT / Bas / Eos / Fbg / Hb / Ht / Lym / MCHC / MCV / Mono / Neu / PT / Plat / RBC / Ret / WBC: tissue Blood; for KIDNEY_L / KIDNEY_R / KIDNEY_TOTAL: tissue Kidney; for LIVER: tissue Liver; for ALP / ALT / AST / BUN / CRE / Ca / Cl / DBIL / GLC / IP / K / LDH / Na / PL / RALB / TBIL / TG / TP / gamma-GTP: tissue Plasma

SMILES: CN(C)C(=N)N=C(N)N [METFORMIN]
- TERMINAL_BW (72 h, time 3 day): 223.9 g
- APTT (72 h, time 3 day): 17.6 s
- Bas (72 h, time 3 day): 0%
- Eos (72 h, time 3 day): 1%
- Fbg (72 h, time 3 day): 251.8 mg/dL
- Hb (72 h, time 3 day): 13.2 g/dL
- Ht (72 h, time 3 day): 39.3%
- Lym (72 h, time 3 day): 78.2%
- MCHC (72 h, time 3 day): 33.6%
- MCV (72 h, time 3 day): 63.4 fL
- Mono (72 h, time 3 day): 3.2%
- Neu (72 h, time 3 day): 17.2%
- PT (72 h, time 3 day): 12.7 s
- Plat (72 h, time 3 day): 115.7 x10_4/uL
- RBC (72 h, time 3 day): 621.4 x10_4/ul
- Ret (72 h, time 3 day): 7.1%
- WBC (72 h, time 3 day): 94 x10_2/uL
- KIDNEY_L (72 h, time 3 day): 1 g
- KIDNEY_R (72 h, time 3 day): 1 g
- KIDNEY_TOTAL (72 h, time 3 day): 2 g
- LIVER (72 h, time 3 day): 11.3 g
- ALP (72 h, time 3 day): 1558.4 IU/L
- ALT (72 h, time 3 day): 52.2 IU/L
- AST (72 h, time 3 day): 78.4 IU/L
- BUN (72 h, time 3 day): 15.8 mg/dL
- CRE (72 h, time 3 day): 0.2 mg/dL
- Ca (72 h, time 3 day): 11.1 mg/dL
- Cl (72 h, time 3 day): 104.8 meq/L
- DBIL (72 h, time 3 day): 0.016 mg/dL
- GLC (72 h, time 3 day): 193.2 mg/dL
- IP (72 h, time 3 day): 8.3 mg/dL
- K (72 h, time 3 day): 3.9 meq/L
- LDH (72 h, time 3 day): 62.2 IU/L
- Na (72 h, time 3 day): 141.6 meq/L
- PL (72 h, time 3 day): 140.8 mg/dL
- RALB (72 h, time 3 day): 2.6 g/dL
- TBIL (72 h, time 3 day): 0.038 mg/dL
- TG (72 h, time 3 day): 68.2 mg/dL
- TP (72 h, time 3 day): 5.6 g/dL
- gamma-GTP (72 h, time 3 day): 1 IU/L
- TERMINAL_BW ([…], time 7 day): 256.3 g
- TERMINAL_BW ([…], time 14 day): 308.9 g
- TERMINAL_BW ([…], time 28 day): 387.2 g
- APTT ([…], time 7 day): 16 s
- Bas ([…], time 7 day): 0%
- Eos ([…], time 7 day): 1%
- Fbg ([…], time 7 day): 279.8 mg/dL
- Hb ([…], time 7 day): 13.8 g/dL
- Ht ([…], time 7 day): 41%
- Lym ([…], time 7 day): 77.6%
- MCHC ([…], time 7 day): 33.7%
- MCV ([…], time 7 day): 62.5 fL
- Mono ([…], time 7 day): 3.6%
- Neu ([…], time 7 day): 17.4%
- PT ([…], time 7 day): 12 s
- Plat ([…], time 7 day): 126.1 x10_4/uL
- RBC ([…], time 7 day): 656.2 x10_4/ul
- Ret ([…], time 7 day): 5.6%
- WBC ([…], time 7 day): 77.5 x10_2/uL
- APTT ([…], time 14 day): 17.2 s
- Bas ([…], time 14 day): 0.2%
- Eos ([…], time 14 day): 1.2%
- Fbg ([…], time 14 day): 248.8 mg/dL
- Hb ([…], time 14 day): 14.3 g/dL
- Ht ([…], time 14 day): 41.6%
- Lym ([…], time 14 day): 78.6%
- MCHC ([…], time 14 day): 34.4%
- MCV ([…], time 14 day): 60.4 fL
- Mono ([…], time 14 day): 2.6%
- Neu ([…], time 14 day): 17%
- PT ([…], time 14 day): 12.2 s
- Plat ([…], time 14 day): 116.5 x10_4/uL
- RBC ([…], time 14 day): 690.4 x10_4/ul
- Ret ([…], time 14 day): 4.6%
- WBC ([…], time 14 day): 107 x10_2/uL
- APTT ([…], time 28 day): 19.8 s
- Bas ([…], time 28 day): 0.2%
- Eos ([…], time 28 day): 1%
- Fbg ([…], time 28 day): 261.8 mg/dL
- Hb ([…], time 28 day): 15.3 g/dL
- Ht ([…], time 28 day): 44.3%
- Lym ([…], time 28 day): 79.4%
- MCHC ([…], time 28 day): 34.5%
- MCV ([…], time 28 day): 57 fL
- Mono ([…], time 28 day): 2.6%
- Neu ([…], time 28 day): 16.2%
- PT ([…], time 28 day): 12.2 s
- Plat ([…], time 28 day): 100.1 x10_4/uL
- RBC ([…], time 28 day): 777.2 x10_4/ul
- Ret ([…], time 28 day): 2.5%
- WBC ([…], time 28 day): 112.9 x10_2/uL
- KIDNEY_L ([…], time 7 day): 1 g
- KIDNEY_R ([…], time 7 day): 1 g
- KIDNEY_TOTAL ([…], time 7 day): 2.1 g
- KIDNEY_L ([…], time 14 day): 1.2 g
- KIDNEY_R ([…], time 14 day): 1.2 g
- KIDNEY_TOTAL ([…], time 14 day): 2.4 g
- KIDNEY_L ([…], time 28 day): 1.4 g
- KIDNEY_R ([…], time 28 day): 1.4 g
- KIDNEY_TOTAL ([…], time 28 day): 2.9 g
- LIVER ([…], time 7 day): 12.7 g
- LIVER ([…], time 14 day): 14 g
- LIVER ([…], time 28 day): 16.4 g
- ALP ([…], time 7 day): 1101.6 IU/L
- ALT ([…], time 7 day): 61 IU/L
- AST ([…], time 7 day): 83.2 IU/L
- BUN ([…], time 7 day): 15.6 mg/dL
- CRE ([…], time 7 day): 0.2 mg/dL
- Ca ([…], time 7 day): 10.8 mg/dL
- Cl ([…], time 7 day): 106.2 meq/L
- DBIL ([…], time 7 day): 0.014 mg/dL
- GLC ([…], time 7 day): 182.8 mg/dL
- IP ([…], time 7 day): 8.2 mg/dL
- K ([…], time 7 day): 4.6 meq/L
- LDH ([…], time 7 day): 102.8 IU/L
- Na ([…], time 7 day): 141.8 meq/L
- PL ([…], time 7 day): 144.4 mg/dL
- RALB ([…], time 7 day): 2.7 g/dL
- TBIL ([…], time 7 day): 0.028 mg/dL
- TG ([…], time 7 day): 119.6 mg/dL
- TP ([…], time 7 day): 5.7 g/dL
- gamma-GTP ([…], time 7 day): 0.8 IU/L
- ALP ([…], time 14 day): 1291.2 IU/L
- ALT ([…], time 14 day): 50.4 IU/L
- AST ([…], time 14 day): 73 IU/L
- BUN ([…], time 14 day): 16.4 mg/dL
- CRE ([…], time 14 day): 0.2 mg/dL
- Ca ([…], time 14 day): 10.9 mg/dL
- Cl ([…], time 14 day): 104.8 meq/L
- DBIL ([…], time 14 day): 0.016 mg/dL
- GLC ([…], time 14 day): 190.4 mg/dL
- IP ([…], time 14 day): 7.1 mg/dL
- K ([…], time 14 day): 3.8 meq/L
- LDH ([…], time 14 day): 72.2 IU/L
- Na ([…], time 14 day): 142.4 meq/L
- PL ([…], time 14 day): 157.6 mg/dL
- RALB ([…], time 14 day): 2.7 g/dL
- TBIL ([…], time 14 day): 0.032 mg/dL
- TG ([…], time 14 day): 134.4 mg/dL
- TP ([…], time 14 day): 5.9 g/dL
- gamma-GTP ([…], time 14 day): 1 IU/L
- ALP ([…], time 28 day): 1096.8 IU/L
- ALT ([…], time 28 day): 47.2 IU/L
- AST ([…], time 28 day): 68.8 IU/L
- BUN ([…], time 28 day): 15.6 mg/dL
- CRE ([…], time 28 day): 0.2 mg/dL
- Ca ([…], time 28 day): 11.1 mg/dL
- Cl ([…], time 28 day): 105.6 meq/L
- DBIL ([…], time 28 day): 0.016 mg/dL
- GLC ([…], time 28 day): 187.6 mg/dL
- IP ([…], time 28 day): 6.8 mg/dL
- K ([…], time 28 day): 3.8 meq/L
- LDH ([…], time 28 day): 52 IU/L
- Na ([…], time 28 day): 145.4 meq/L
- PL ([…], time 28 day): 150.4 mg/dL
- RALB ([…], time 28 day): 2.8 g/dL
- TBIL ([…], time 28 day): 0.036 mg/dL
- TG ([…], time 28 day): 158.2 mg/dL
- TP ([…], time 28 day): 6.2 g/dL
- gamma-GTP ([…], time 28 day): 1 IU/L
